Assays:
[1] = test system: tumor cell line K562 (Ph-positive); assay: Growth behavior of K562 cells following administration of PNA conjugates (cell number, Coulter Counter); format: cell-based
tumor cell line K562 = assay: Apoptosis behavior of K562 cells: cell number after 24 h treatment and subsequent PNA removal; format: cell-based; conditions: 100 nM for 24 h
Method: The cell number change is shown on a time axis. The treatment was carried out for 24 h and by means of subsequent PNA removal. Final concentration: 100 nM. Dark blue line: AS conjugate; magenta: random sequence conjugate; yellow: AS-non-ligated; blue: untreated control.
The question of the apoptosis behavior following the administration of a conjugate according to the invention (corresponding to Example 3 and FIG. 6) was studied as such. The incubation period was 24 hours with 5% CO2 at 37° C. in an incubator. Having removed the medium mixture and carrying out a wash step twice using fresh RPMI-1640, the same volume of fresh medium was added by pipetting and further cultured. The medium was changed every 72 hours. The cultures were treated as before: As in the previous experiment, a break-down of the untreated culture was again found after about 72 hours. […] The relative stability up to 144 hours following the removal of antisense NLS-PNA was striking in the culture treated with antisense NLS-PNA.

With “Transport peptide (penetratin)-disulfide bridge-NLS—KK(FITC)—PNA^BCR/Abl (sequence of PNA^BCR/Abl: H2N-TGCGTGTGGATGATTCTTTGTTTTAA-COOH) [antisense NLS penetratin]” the “phenotype of the treated cells” value ([1]; 100 nM, in contrast to the controls) was “vital phenotype”, the “stabilization of the cell number, time after the treatment” value ([1]; final concentration 100 nM, treatment throughout the experiment) was 24 h and the “growth behavior (cell number change on a time axis)” value ([1]; final concentration 100 nM, treatment throughout the experiment, compared with untreated control) was “stagnation of the cell proliferation”. For the same substance, the “relative stability of the culture, time following PNA removal” value (tumor cell line K562; then PNA removal) was “up to 144 hours”, the “time of the maximum cell number following PNA removal” value (tumor cell line K562; then PNA removal) was 120 h and the “cell growth / cell number after PNA removal” value (tumor cell line K562; then PNA removal and further culture, medium changed every 72 hours) was “minor increase in the cell number”.
